The values below are quoted from earlier work in US10406122B2 (priority 2011, dated 2019).

As a reminder, the AUC is concentration integrated over time. For orientation: Cmax means the peak of the concentration-time curve. Broadly, the Tmax is the time at which the peak concentration occurs.

The conditions of data set [1]: tramadol […] [100 mg] p.o., single dose; cited from earlier work.
Data set [2] relates to experienced opioid abusers. To be noted: cited from earlier work.
A further data set has as its system postoperative pain. To be noted: after 4 to 6 hours, IV or IM intermittent injection; cited from earlier work.
Data set [3] has as its system patients undergoing abdominal surgery. To be noted: within the first 90 minutes of treatment; cited from earlier work.

Regarding (+)-O-desmethyltramadol [(+)-M1], in data set [1], the AUC is 1258 ± 410 ng·h/mL, the Cmax is on record as 147 ± 39 ng/mL, the Tmax is given as 1.6 ± 0.5 h and the t1/2 is 6.0 ± 1.0 h.
`CN1CC[C@]23c4c5ccc(O)c4O[C@H]2[C@@H](O)C=C[C@H]3[C@H]1C5` [morphine]: the “ratings of feel drug effect compared to placebo” value in data set [2] (IV over 5 minutes) is reported as “significantly increased ratings”. Moreover, in data set [2] (tramadol 100 and 200 mg IV, morphine 10 and 20 mg IV, over 5 minutes), the “ratings of liking / ARCI-MBG scale” value is on record as “significantly increased ratings”. Also, the “reduction of pain intensity” value with postoperative pain is 69.8%. Moreover, in data set [3], the “responder rate (no or slight pain)” value is 81.2%.
